Measured values: ChEMBL document CHEMBL5096141, “Protease targeted COVID-19 drug discovery and its challenges: Insight into viral main protease (Mpro) and papain-like protease (PLpro) inhibitors” (Bioorg Med Chem, 2021)

Columns and labels:
[1] = Inhibition of SARS-CoV PLpro expressed in Escherichia coli; parameters: species or system Severe acute respiratory syndrome-related coronavirus
[2] = biological target: T1, Replicase polyprotein 1ab (Severe acute respiratory syndrome coronavirus 2, UniProt P0DTD1); test: Inhibition of SARS-CoV-2 PLpro expressed in Escherichia coli
[3] = biological target: T1, Replicase polyprotein 1ab; test: Inhibition of SARS-CoV-2 MPro
[4] = biological target: T1, Replicase polyprotein 1ab; test: Inhibition of recombinant SARS-CoV-2 MPro incubated for 10 mins in presence of fluorogenic substrate
[5] = Inhibition of recombinant SARS-CoV MPro; parameters: species or system Severe acute respiratory syndrome-related coronavirus
[6] = Inhibition of recombinant MERS-CoV MPro; parameters: species or system Middle East respiratory syndrome-related coronavirus

SMILES | IC50 [1] [µM] | IC50 [3] [µM] | also measured
COc1ccc(CNC(=O)C2CCN(Cc3cccc4ccccc34)CC2)cc1 | 59 |  | 
CC(=O)Nc1ccc(C)c(C(=O)N[C@@H](C)c2cccc3ccccc23)c1 | 2.6 |  | IC50 [2]: 5 µM
O=C[C@@H](C[C@@H]1CCNC1=O)NC(=O)[C@@H](Cc1cccc(F)c1)NC(=O)c1cc2ccccc2[nH]1 |  | 0.04 | IC50 [4]: 0.04 µM
Cc1ccc(N)cc1C(=O)N[C@@H](C)c1cccc2ccccc12 | 0.6 |  | 
CC(C)(C)OC(=O)Nc1cccn([C@H](CC2CC2)C(=O)N[C@H](C[C@@H]2CCNC2=O)C(=O)C(=O)NCc2ccccc2)c1=O |  |  | IC50 [5]: 0.9 µM; IC50 [6]: 0.58 µM
Cc1ccccc1C(=O)NC(C)c1ccc2ccccc2c1 (stereo unspecified) | 20 |  | 
CN(C)C(=O)COC(=O)Cc1ccc(OC(=O)c2ccc(NC(=N)N)cc2)cc1 [CAMOSTAT] |  | > 20 | 
Cc1cccc(C)c1OCC(=O)N[C@@H](Cc1ccccc1)[C@@H](O)C[C@H](Cc1ccccc1)NC(=O)[C@H](C(C)C)N1CCCNC1=O [LOPINAVIR] |  | > 20 | 
